For three molecules, EC50 results are on record in patent CN108864033A, “苯基取代的酰肼衍生物及其用途” (Guangdong HEC Pharmaceutical Co Ltd, priority 2017, dated 2018).

By EC50 is commonly meant the concentration giving half of the maximal effect.

The structures appear in SMILES notation.

The experiment concerns glutamate-induced oxidative stress injury of HT22 cells (谷氨酸诱导的HT22细胞氧化应激损伤). The experiment in a line: Protection of HT22 cells against glutamate-induced oxidative stress injury (LDH release, cell viability). Type of experiment: cell-based. The settings on record: HT-22, HT22 mouse hippocampal neuronal cells, 15 mM glutamate, 24 h, 10 concentrations, 0.25% DMSO.
In turn, `Cc1ccc(N(/N=C/c2ccc3c(c2)OCO3)C(=O)C(F)(F)F)c(C)c1` [实施例1, (E)-N'-(苯并-1,3-二恶环戊烷-5-亚甲基)-N-(2,4-二甲苯基)-2,2,2-三氟乙酰肼] returned a 50% effective concentration (EC50) of 0.13 µM. In turn, `Cc1ccc(N(/N=C/c2ccc(Cl)cc2Cl)C(=O)C(F)(F)F)c(C)c1` [实施例2, (E)-N'-(2,4-二氯苯亚甲基)-N-(2,4-二甲苯基)-2,2,2-三氟乙酰肼] came in with an EC50 of 0.13 µM. As for `CC(=O)N(/N=C/c1ccc2c(c1)OCO2)c1ccc(C)cc1C` [实施例3, (E)-N'-(苯并-1,3-二恶环戊烷-5-亚甲基)-N-(2,4-二甲苯基)乙酰肼], the midpoint of the response, the EC50, lay at 4.12 µM.
